Measured values as given in patent publication US9339503B2, “Tetrahydro-quinazolinone derivatives as TANK and PARP inhibitors” (MERCK PATENT GMBH, priority 2012, dated 2016).

Tests used:
[1] = tested on: DLD-1-cancer cells; conditions: cited from earlier work
[2] = target: T1, GST-tagged Tnks-2 (873-1166 aa) (Homo sapiens, UniProt Q9H2K2); assay: TNKS 2 activity ELISA (autoparsylation assay); type: biochemical; conditions: read-out: IC50 tankyrase 2 (ELISA assay)
T1 construct: GST-tagged Tnks-2 (873-1166 aa, prepared in-house); made in house
T1 sequence (Q9H2K2 873-1166): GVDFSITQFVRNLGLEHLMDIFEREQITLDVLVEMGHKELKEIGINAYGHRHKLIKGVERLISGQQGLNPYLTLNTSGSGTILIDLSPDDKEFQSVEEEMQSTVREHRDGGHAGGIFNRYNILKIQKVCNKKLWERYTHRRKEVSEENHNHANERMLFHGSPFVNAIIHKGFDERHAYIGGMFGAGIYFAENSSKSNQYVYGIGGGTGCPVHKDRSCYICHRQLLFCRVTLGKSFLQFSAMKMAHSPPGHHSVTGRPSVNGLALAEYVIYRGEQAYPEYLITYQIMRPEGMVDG
Protocol: (§1) Biochemical Activity Testing of TNKS 1 and 2: Activity ELISA (Autoparsylation Assay)
(§2) For analysis of autoparsylation activity of TNKS 1 and 2 an activity ELISA was performed: In the first step GST tagged TNKS was captured on a Glutathione coated plate. Then the activity assay with biotinylated NAD was performed in the absence/presence of the compounds. During the enzymatic reaction GST tagged TNKS transferred biotinylated ADP-ribose to itself from biotinylated NAD as co-substrate. For the detection streptavidin-HRP conjugate was added that bound to the biotinylated TNKS and was thereby captured to the plates. The amount of biotinylated resp autoparsylated TNKS was detected with a luminescence substrate for HRP. The level of the luminescence signal correlated directly with the amount of autoparsylated TNKS and therefore with activity of TNKS.
(§3) The activity ELISA was performed in 384 well Glutathione coated microtiter plates (Express capture Glutathione coated plate, Biocat, Heidelberg, Germany). The plates were pre-equilibrated with PBS. Then the plates were incubated with 50 μl 20 ng/well GST-tagged Tnks-1 (1023-1327 aa, prepared in-house), respectively GST-tagged Tnks-2 (873-1166 aa, prepared in-house) in assay buffer (50 mM HEPES, 4 mM Mg-chloride, 0.05% Pluronic F-68, 2 mM DTT, pH 7.7) overnight at 4° C. The plates were washed 3 times with PBS-Tween-20. The wells were blocked by incubation at room temperature for 20 minutes with 50 μl blocking buffer (PBS, 0.05% Tween-20, 0.5% BSA). Afterwards the plates were washed 3 times with PBS-Tween-20. The enzymatic reaction was performed in 50 μl reaction solution (50 mM HEPES, 4 mM Mg-chloride, 0.05% Pluronic F-68, 1.4 mM DTT, 0.5% DMSO, pH 7.7) with 10 μM bio-NAD (Biolog, Life science Inst., Bremen, Germany) as co-substrate in the absence or presence of the test compound (10 dilution concentrations) for 1 hour at 30° C. The reaction was stopped by 3 times washing with PBS-Tween-20. For the detection 50 μl of 20 ng/μl Streptavidin, HRP conjugate (MoBiTec, Göttingen, Germany) in PBS/0.05% Tween-20/0.01% BSA were added and the plates were incubated for 30 minutes at room temperature. After three times washing with PBS-Tween-20 50 μl of SuperSignal ELISA Femto Maximum sensitivity substrate solution (ThermoFisherScientific (Pierce), Bonn, Germany) were added. Following a 1 minute incubation at room temperature luminescence signals were measured with an Envision multimode reader (Perkin Elmer LAS Germany GmbH) at 700 nm. The full value used was the inhibitor-free reaction. The pharmacological zero value used was XAV-939 (Tocris) in a final concentration of 5 μM. The inhibitory values (IC50) were determined using either the program Symyx Assay Explorer® or Condosseo® from GeneData.

[3] = target: T2, GST-tagged Tnks-1 (1023-1327 aa) (Homo sapiens, UniProt O95271); assay: TNKS 1 activity ELISA (autoparsylation assay); type: biochemical; conditions: read-out: IC50 tankyrase 1 (ELISA assay)
T2 construct: GST-tagged Tnks-1 (1023-1327 aa, prepared in-house); made in house
T2 sequence (O95271 1023-1327): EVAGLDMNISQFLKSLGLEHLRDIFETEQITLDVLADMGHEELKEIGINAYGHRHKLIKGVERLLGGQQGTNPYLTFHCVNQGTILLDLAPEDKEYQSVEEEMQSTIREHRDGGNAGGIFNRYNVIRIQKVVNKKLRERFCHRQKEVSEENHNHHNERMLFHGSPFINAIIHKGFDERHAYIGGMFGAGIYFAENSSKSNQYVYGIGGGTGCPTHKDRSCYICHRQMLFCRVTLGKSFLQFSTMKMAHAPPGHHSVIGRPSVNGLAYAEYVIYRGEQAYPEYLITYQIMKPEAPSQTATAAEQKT
Protocol: as §1, §2, §3

[4] = tested on: tankyrase 1/2; assay: Measurement of cellular inhibition of tankyrase (Axin2 level, Luminex based assay, DLD1 cells); conditions: 24 hours, increase of Axin2 level, read-out: EC50 tankyrase 1/2 (cell assay)
Protocol: Measurement of Cellular Inhibition of Tankyrase
Since Tankyrases have been described to modulate cellular level of Axin2 (Huang et al., 2009; Nature) the increase of Axin2 level is used as read-out for determination of cellular inhibition of Tankyrases in a Luminex based assay.
Cells of the colon carcinoma cell line DLD1 are plated in 96 well plates with 1.5×10^4 cells per well. Next day, cells are treated with a serial-dilution of test compound in seven steps as triplicates with a final DMSO concentration of 0.3%. After 24 hours, cells are lysed in lysis buffer (20 mM Tris/HCl pH 8.0, 150 mM NaCl, 1% NP40, 10% Glycerol) and lysates are cleared by centrifugation through a 96 well filter plate (0.65 μm). Axin2 protein is isolated from cell lysates by incubation with a monoclonal anti-Axin2 antibody (R&D Systems #MAB6078) that is bound to fluorescent carboxybeads. Then, bound Axin2 is specifically detected with a polyclonal anti-Axin2 antibody (Cell Signaling #2151) and an appropriate PE-fluorescent secondary antibody. The amount of isolated Axin2 protein is determined in a Luminex^200 machine (Luminex Corporation) according to the manufacturer's instruction by counting 100 events per well. […] For analysis, the obtained data were normalized against the untreated solvent control and fitted for determination of the EC50 values using the Assay Explorer software (Accelrys).

[5] = target: T3, GST-tagged Tankyrase-2 (873-1166 aa) (Homo sapiens, UniProt Q9H2K2); assay: Tankyrase 2 autoparsylation assay (HTRF enzyme assay); type: biochemical
T3 construct: GST-tagged Tankyrase-2 (873-1166 aa)
T3 sequence (Q9H2K2 873-1166): as the sequence (Q9H2K2 873-1166) above
Protocol: (§4) The autoparsylation assay was run in two steps: the enzymatic reaction in which GST-tagged Tankyrase-1, resp Tankyrase-2 transferred biotinylated ADP-ribose to itself from biotinylated NAD as co-substrate and the detection reaction where a time resolved FRET between cryptate labelled anti-GST bound to the GST tag of the enzyme and Xlent® labelled-streptavidin bound the biotin-parsylation residue was analysed. The autoparsylation activity was detectable directly via the increase in HTRF signal.
(§5) The autoparsylation assay was performed as 384-well HTRF® (Cisbio, Codolet, France) assay format in Greiner low volume nb 384-well microtiter plates and was used for high throughput screen. 250 nM GST-tagged Tankyrase-1 (1023-1327 aa), respectively about 250 nM GST-tagged Tankyrase-2 (873-1166 aa) and 5 μM bio-NAD (Biolog, Life science Inst., Bremen, Germany) as co-substrate were incubated in a total volume of 5 μl (50 mM HEPES, 4 mM Mg-chloride, 0.05% Pluronic F-68, 1.4 mM DTT, 0.5% DMSO, pH 7.7) in the absence or presence of the test compound (10 dilution concentrations) for 90 min at 30° C. The reaction was stopped by the addition of 1 μl 50 mM EDTA solution. 2 μl of the detection solution (1.6 μM SA-Xlent® (Cisbio, Codolet, France), 7.4 nM Anti-GST-K® (Eu-labelled anti-GST, Cisbio, Codolet, France) in 50 mM HEPES, 800 mM KF, 0.1% BSA, 20 mM EDTA, 0.1% CHAPS, pH 7.0) were added. After 1 h incubation at room temperature the HTRF was measured with an Envision multimode reader (Perkin Elmer LAS Germany GmbH) at excitation wavelength 340 nm (laser mode) and emission wavelengths 615 nm and 665 nm. The ratio of the emission signals was determined. The full value used was the inhibitor-free reaction. The pharmacological zero value used was XAV-939 (Tocris) in a final concentration of 5 μM. The inhibitory values (IC50) were determined using either the program Symyx Assay Explorer® or Condosseo® from GeneData.

[6] = target: T4, GST-tagged Tankyrase-1 (1023-1327 aa) (Homo sapiens, UniProt O95271); assay: Tankyrase 1 autoparsylation assay (HTRF enzyme assay); type: biochemical
T4 construct: GST-tagged Tankyrase-1 (1023-1327 aa)
T4 sequence (O95271 1023-1327): as the sequence (O95271 1023-1327) above
Protocol: as §4, §5

[7] = target: T5, His-tagged Parp-1 (Homo sapiens, UniProt P09874); assay: PARP-1 autoparsylation assay (HTRF); type: biochemical; conditions: read-out: IC50 PARP1
T5 construct: purchased Enzo Life Sciences GmbH, Lörrach, Germany
T5 sequence (P09874 whole entry): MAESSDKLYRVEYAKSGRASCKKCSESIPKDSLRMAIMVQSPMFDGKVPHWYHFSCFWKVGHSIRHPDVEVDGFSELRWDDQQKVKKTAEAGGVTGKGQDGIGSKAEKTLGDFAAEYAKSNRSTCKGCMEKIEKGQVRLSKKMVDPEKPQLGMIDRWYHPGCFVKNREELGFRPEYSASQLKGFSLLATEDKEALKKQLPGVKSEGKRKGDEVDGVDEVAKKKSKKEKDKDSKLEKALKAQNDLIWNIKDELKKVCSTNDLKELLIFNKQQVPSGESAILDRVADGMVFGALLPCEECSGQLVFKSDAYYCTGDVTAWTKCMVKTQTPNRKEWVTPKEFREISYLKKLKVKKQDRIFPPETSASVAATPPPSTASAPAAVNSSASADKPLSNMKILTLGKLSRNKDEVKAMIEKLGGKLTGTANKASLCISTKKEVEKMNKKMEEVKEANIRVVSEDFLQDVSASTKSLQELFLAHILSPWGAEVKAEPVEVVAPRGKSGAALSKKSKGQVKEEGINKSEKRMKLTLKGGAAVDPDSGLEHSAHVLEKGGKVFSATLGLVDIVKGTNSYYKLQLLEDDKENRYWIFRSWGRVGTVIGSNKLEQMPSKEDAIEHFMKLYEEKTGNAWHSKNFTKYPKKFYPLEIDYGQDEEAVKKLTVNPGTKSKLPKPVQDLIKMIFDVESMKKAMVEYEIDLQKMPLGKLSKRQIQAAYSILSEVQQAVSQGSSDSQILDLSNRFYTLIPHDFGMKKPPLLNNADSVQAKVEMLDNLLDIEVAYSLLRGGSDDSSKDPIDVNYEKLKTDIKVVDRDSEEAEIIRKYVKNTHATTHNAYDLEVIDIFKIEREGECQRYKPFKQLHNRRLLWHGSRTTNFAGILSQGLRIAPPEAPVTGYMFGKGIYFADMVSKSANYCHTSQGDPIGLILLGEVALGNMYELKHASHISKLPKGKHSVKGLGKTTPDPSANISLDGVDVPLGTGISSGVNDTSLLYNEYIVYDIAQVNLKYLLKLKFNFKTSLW
Protocol: Biochemical Activity Testing of PARP-1: Autoparsylation Assay
as §4, with “His-tagged Parp-1” for “GST-tagged Tankyrase-1, resp Tankyrase-2”, “ADP-ribose/ADP-ribose” for “ADP-ribose”, “NAD/NAD” for “NAD”, “anti-His antibody” for “anti-GST”, “His” for “GST”
The autoparsylation assay was performed as 384-well HTRF® (Cisbio, Codolet, France) assay format in Greiner low volume nb 384-well microtiter plates. 35 nM His-tagged Parp-1 (human, recombinant, Enzo Life Sciences GmbH, Lörrach, Germany) and a mixture of 125 nM bio-NAD (Biolog, Life science Inst., Bremen, Germany) and 800 nM NAD as co-substrate were incubated in a total volume of 6 μl (100 mM Tris/HCl, 4 mM Mg-chloride, 0.01% IGEPAL® CA630, 1 mM DTT, 0.5% DMSO, pH 8, 13 ng/μl activated DNA (BPS Bioscience, San Diego, US)) in the absence or presence of the test compound (10 dilution concentrations) for 150 min at 23° C. The reaction was stopped by the addition of 4 μl of the Stop/detection solution (70 nM SA-Xlent® (Cisbio, Codolet, France), 2.5 nM Anti-His-K® (Eu-labelled anti-His, Cisbio, Codolet, France) in 50 mM HEPES, 400 mM KF, 0.1% BSA, 20 mM EDTA, pH 7.0). After 1 h incubation at room temperature the HTRF was measured with an Envision multimode reader (Perkin Elmer LAS Germany GmbH) at excitation wavelength 340 nm (laser mode) and emission wavelengths 615 nm and 665 nm. The ratio of the emission signals was determined. The full value used was the inhibitor-free reaction. The pharmacological zero value used was Olaparib (LClabs, Woburn, US) in a final concentration of 1 μM. The inhibitory values (IC50) were determined using either the program Symyx Assay Explorer® or Condosseo® from GeneData.

| Compound | growth of DLD-1-cancer cells [1] | IC50 [2] [nM] | IC50 [3] [nM] | EC50 [4] [nM] | IC50 [5] [nM] | IC50 [6] [nM] | IC50 [7] [nM] |
| --- | --- | --- | --- | --- | --- | --- | --- |
| Oc1nc(-c2ccc(C(F)(F)F)cc2)nc2c1CSCC2 [XAV939] | inhibits growth | – | – | – | – | – | – |
| O=c1[nH]c(N2CCN(c3ccccc3C(F)(F)F)CC2)nc2c1CCCC2 [Compound A56, 2-[4-(2-trifluoromethyl-phenyl)-piperazin-1-yl]-5,6,7,8-tetrahydro-3H-quinazolin-4-one] | – | < 300 | < 300 | 300 to 3000 | 300 to 3000 | < 300 | – |
| O=c1[nH]c(N2CCC(C(F)(F)F)CC2)nc2c1CCCC2 [Compound A10, 2-(4-Trifluoromethylpiperidin-1-yl)-5,6,7,8-tetrahydro-3H-quinazolin-4-one] | – | < 300 | < 300 | 3000 to 50000 | 300 to 3000 | 300 to 3000 | – |
| NC(=O)c1ccccc1N1CCN(c2nc3c(c(=O)[nH]2)CCCC3)CC1 [Compound A34, 2-[4-(4-oxo-5,6,7,8-tetrahydro-3H-quinazolin-2-yl)piperazin-1-yl]benzamide] | – | < 300 | < 300 | – | 300 to 3000 | < 300 | < 300 |
| O=c1[nH]c(N2CCN(c3ccc(Cl)cc3)CC2)nc2c1CCCC2 [Compound A8, 2-[4-(4-Chlorophenyl)piperazin-1-yl]-5,6,7,8-tetrahydro-3H-quinazolin-4-one] | – | < 300 | < 300 | 3000 to 50000 | 300 to 3000 | 300 to 3000 | – |
| O=c1[nH]c(N2CCN(c3cccc(Cl)c3)CC2)nc2c1CCCC2 [Compound A11, 2-[4-(3-Chlorophenyl)piperazin-1-yl]-5,6,7,8-tetrahydro-3H-quinazolin-4-one] | – | < 300 | < 300 | 300 to 3000 | 300 to 3000 | 300 to 3000 | – |
| COc1ccccc1C1CCN(c2nc3c(c(=O)[nH]2)CCCC3)CC1 [Compound A54, 2-[4-(2-methoxy-phenyl)-piperidin-1-yl]-5,6,7,8-tetrahydro-3H-quinazolin-4-one] | – | < 300 | < 300 | 300 to 3000 | 300 to 3000 | < 300 | – |
| COc1ccc(N2CCN(c3nc4c(c(=O)[nH]3)CCCC4)CC2)c(OC)c1 [Compound A37, 2-[4-(2,4-dimethoxyphenyl)piperazin-1-yl]-5,6,7,8-tetrahydro-3H-quinazolin-4-one] | – | < 300 | < 300 | 300 to 3000 | 300 to 3000 | 300 to 3000 | – |
| COc1ccc(C2CCN(c3nc4c(c(=O)[nH]3)CCCC4)CC2)cc1 [Compound A55, 2-[4-(4-methoxy-phenyl)-piperidin-1-yl]-5,6,7,8-tetrahydro-3H-quinazolin-4-one] | – | < 300 | < 300 | 3000 to 50000 | 300 to 3000 | < 300 | – |
| COc1ccc(N2CCN(c3nc4c(c(=O)[nH]3)CCCC4)CC2)cn1 [Compound A51, 2-[4-(6-methoxy-3-pyridyl)piperazin-1-yl]-5,6,7,8-tetrahydro-3H-quinazolin-4-one] | – | 300 to 3000 | 300 to 3000 | 300 to 3000 | 300 to 3000 | 300 to 3000 | – |
| O=c1[nH]c(N2CCN(c3cccc(F)c3)CC2)nc2c1CCCC2 [Compound A5, 2-[4-(3-Fluorophenyl)piperazin-1-yl]-5,6,7,8-tetrahydro-3H-quinazolin-4-one] | – | < 300 | < 300 | 3000 to 50000 | 300 to 3000 | 300 to 3000 | – |
